Laboratory results published in US20030236457A1, “Method of endovascular brain mapping” (priority 2002, published 2003).
Counter-ions that a name gives are not always drawn. Like-named read-outs stand apart in the source and are kept apart here. Ends that are not written are not given here.

Experiments:
brain parenchyma = settings: awake patient, intra-arterial infusion; cited from earlier work
[1] = cited from earlier work
[2] = chronic subcutaneous injections; cited from earlier work
rat brain = test: Endovascular brain mapping: dye or embolic agent infused into the internal carotid artery, brains harvested to examine staining quality; format: in vivo, Sprague Dawley rats; settings: ICA infusion after blood brain barrier disruption with arabinose, dye mixed with Omnipaque
Procedure: Generally, Sprague Dawley rats were anesthetized and vascular access obtained by ventral cervical cutdown. A catheter was introduced into the common carotid artery proximal to the ICA. All other branches were clamped temporarily with aneurysm clips, permitting flow to the ICA alone. The blood brain barrier was disrupted with a solution of arabinose. […] Tantalum powder was also tested without blood brain barrier disruption. The brains were harvested for examination of the quality of staining.
Using a carotid cutdown method, the CCA was exposed and a catheter was introduced into the lumen proximal to the ICA. A ligature secured the catheter within the vessel. The external carotid artery and occipital artery were clamped, preserving flow to the ICA.
To test the use of tantalum powder, the same procedure described above was performed without disruption of the blood brain barrier. A small amount of tantalum powder suspension was then injected under fluoroscopic visualization until the right hemispheric distribution was opacified.

[3] = cited from earlier work; remark: listed apart in the source
[4] = Table 3, solvent or buffer named
[5] = Table 1, medium in which the fluorophore is solubilised

| Molecule | Solubility [1, 4] | Solubility [1, 5] | also measured |
| --- | --- | --- | --- |
| C=CCC1(C(C)C#CCC)C(=O)N=C(O)N(C)C1=O (racemic) [Brevital®, Methohexital Sodium; 2,4,6 (1H, 3H, 5H) Pyrimidinetrione, 1-methyl-5-(1-methyl-2-pentynyl)-5-(2-propenyl)-, (±)-, monosodium salt] |  |  | duration of temporary neurological deficits after infusion (brain parenchyma): resolve back to baseline within several minutes |
| NCc1ccc(-c2c3ccc(=O)cc-3oc3cc(O)ccc23)c(C(=O)O)c1 [5-(aminomethyl) fluorescein, hydrochloride] | DMF |  |  |
| CCCCCCCCCCCC(=O)Nc1ccc(-c2c3ccc(=O)cc-3oc3cc(O)ccc23)c(C(=O)O)c1 [5-dodecanoylamino-fluorescein] |  | CDs |  |
| CCCCc1ccc2n1[B-](F)(F)[N+]1=C(CCCCCCCCC(=O)O)C=CC1=C2 [C4-BODIPY ® (500/510) C9, 5-butyl-4,4-difluoro-4-bora-3a,4a-diaza-s-indacene-3-nonanoic acid] |  | CDs |  |
| CCN(Cc1cccc(S(=O)(=O)[O-])c1)c1ccc(C(=C2C=CC(=[N+](CC)Cc3cccc(S(=O)(=O)[O-])c3)C=C2)c2ccc(O)cc2S(=O)(=O)[O-])cc1.[Na+].[Na+] [FD & C Green #3] |  |  | induction of sarcomas [2]: induction of sarcomas; staining of the selected vascular distribution of the brain (rat brain): clearly stained both on the cortical surface; staining of the selected vascular distribution of the brain (rat brain; listed as FD&C Green #3): good staining of a selective vascular distribution |
| CC1=CC(C)=[N+]2C1=Cc1c(C)cc(C)n1[B-]2(F)F [Tetramethyl- BODIPY ® (505/515), 4,4-difluoro-1,3,5,7-tetramethyl-4-bora-3a,4a-diaza-s-indacene] |  | Cyclodextrins (CD) |  |
| FLUO-RGGRLSYSRRRESTSTGR (not fully specified (N-terminus); printed as FLUO-RGGRLSYSRRRESTSTGR) [FLUO-L-SynB1] | Phosphate |  |  |
| FLUO-RRLSYSRRRF (not fully specified (N-terminus); printed as FLUO-RRLSYSRRRF) [FLUO-L-SynB3] | PBS |  |  |
| carboxymethyl-β-cyclodextrin [CM-β-CD] |  |  | solubility in water [3]: 50 mg/mL |
